In paper PMC4456433, “Chemical activation of the mechanotransduction channel Piezo1” (eLife, 2015):

Legend:
Format in all cases: cell-based
mPiezo2 = target: T1, mPiezo2 (Mus musculus, UniProt Q8CD54); experiment: whole-cell patch clamp of mechanically activated currents, transfected HEK293T; details: 10 μM Yoda1, up to 5 min, -80 mV; selectivity control
T1 construct: gene Piezo2; cDNA transiently transfected in HEK293T cells

mPiezo1 = target: T2, mPiezo1 (Mus musculus, UniProt E2JF22); experiment: FLIPR calcium influx (Fluo3), transfected HEK293T, 384-well; details: agonist; pH 7.4, HBSS with 1.26 mM CaCl2; unreliable (compound insolubility above ~20 μM)
T2 construct: gene Piezo1; full-length cDNA transiently transfected in HEK293T (mPiezo1-IRES GFP for imaging and patch clamp); for bilayers purified protein as in Coste et al. 2012

hPiezo1 = target: T3, hPiezo1 (Homo sapiens, UniProt Q92508); experiment: as above; details: agonist; pH 7.4, HBSS with 1.26 mM CaCl2; unreliable (compound insolubility above ~20 μM)
T3 construct: gene PIEZO1; cDNA transiently transfected in HEK293T cells
T3 sequence (Q92508 whole entry): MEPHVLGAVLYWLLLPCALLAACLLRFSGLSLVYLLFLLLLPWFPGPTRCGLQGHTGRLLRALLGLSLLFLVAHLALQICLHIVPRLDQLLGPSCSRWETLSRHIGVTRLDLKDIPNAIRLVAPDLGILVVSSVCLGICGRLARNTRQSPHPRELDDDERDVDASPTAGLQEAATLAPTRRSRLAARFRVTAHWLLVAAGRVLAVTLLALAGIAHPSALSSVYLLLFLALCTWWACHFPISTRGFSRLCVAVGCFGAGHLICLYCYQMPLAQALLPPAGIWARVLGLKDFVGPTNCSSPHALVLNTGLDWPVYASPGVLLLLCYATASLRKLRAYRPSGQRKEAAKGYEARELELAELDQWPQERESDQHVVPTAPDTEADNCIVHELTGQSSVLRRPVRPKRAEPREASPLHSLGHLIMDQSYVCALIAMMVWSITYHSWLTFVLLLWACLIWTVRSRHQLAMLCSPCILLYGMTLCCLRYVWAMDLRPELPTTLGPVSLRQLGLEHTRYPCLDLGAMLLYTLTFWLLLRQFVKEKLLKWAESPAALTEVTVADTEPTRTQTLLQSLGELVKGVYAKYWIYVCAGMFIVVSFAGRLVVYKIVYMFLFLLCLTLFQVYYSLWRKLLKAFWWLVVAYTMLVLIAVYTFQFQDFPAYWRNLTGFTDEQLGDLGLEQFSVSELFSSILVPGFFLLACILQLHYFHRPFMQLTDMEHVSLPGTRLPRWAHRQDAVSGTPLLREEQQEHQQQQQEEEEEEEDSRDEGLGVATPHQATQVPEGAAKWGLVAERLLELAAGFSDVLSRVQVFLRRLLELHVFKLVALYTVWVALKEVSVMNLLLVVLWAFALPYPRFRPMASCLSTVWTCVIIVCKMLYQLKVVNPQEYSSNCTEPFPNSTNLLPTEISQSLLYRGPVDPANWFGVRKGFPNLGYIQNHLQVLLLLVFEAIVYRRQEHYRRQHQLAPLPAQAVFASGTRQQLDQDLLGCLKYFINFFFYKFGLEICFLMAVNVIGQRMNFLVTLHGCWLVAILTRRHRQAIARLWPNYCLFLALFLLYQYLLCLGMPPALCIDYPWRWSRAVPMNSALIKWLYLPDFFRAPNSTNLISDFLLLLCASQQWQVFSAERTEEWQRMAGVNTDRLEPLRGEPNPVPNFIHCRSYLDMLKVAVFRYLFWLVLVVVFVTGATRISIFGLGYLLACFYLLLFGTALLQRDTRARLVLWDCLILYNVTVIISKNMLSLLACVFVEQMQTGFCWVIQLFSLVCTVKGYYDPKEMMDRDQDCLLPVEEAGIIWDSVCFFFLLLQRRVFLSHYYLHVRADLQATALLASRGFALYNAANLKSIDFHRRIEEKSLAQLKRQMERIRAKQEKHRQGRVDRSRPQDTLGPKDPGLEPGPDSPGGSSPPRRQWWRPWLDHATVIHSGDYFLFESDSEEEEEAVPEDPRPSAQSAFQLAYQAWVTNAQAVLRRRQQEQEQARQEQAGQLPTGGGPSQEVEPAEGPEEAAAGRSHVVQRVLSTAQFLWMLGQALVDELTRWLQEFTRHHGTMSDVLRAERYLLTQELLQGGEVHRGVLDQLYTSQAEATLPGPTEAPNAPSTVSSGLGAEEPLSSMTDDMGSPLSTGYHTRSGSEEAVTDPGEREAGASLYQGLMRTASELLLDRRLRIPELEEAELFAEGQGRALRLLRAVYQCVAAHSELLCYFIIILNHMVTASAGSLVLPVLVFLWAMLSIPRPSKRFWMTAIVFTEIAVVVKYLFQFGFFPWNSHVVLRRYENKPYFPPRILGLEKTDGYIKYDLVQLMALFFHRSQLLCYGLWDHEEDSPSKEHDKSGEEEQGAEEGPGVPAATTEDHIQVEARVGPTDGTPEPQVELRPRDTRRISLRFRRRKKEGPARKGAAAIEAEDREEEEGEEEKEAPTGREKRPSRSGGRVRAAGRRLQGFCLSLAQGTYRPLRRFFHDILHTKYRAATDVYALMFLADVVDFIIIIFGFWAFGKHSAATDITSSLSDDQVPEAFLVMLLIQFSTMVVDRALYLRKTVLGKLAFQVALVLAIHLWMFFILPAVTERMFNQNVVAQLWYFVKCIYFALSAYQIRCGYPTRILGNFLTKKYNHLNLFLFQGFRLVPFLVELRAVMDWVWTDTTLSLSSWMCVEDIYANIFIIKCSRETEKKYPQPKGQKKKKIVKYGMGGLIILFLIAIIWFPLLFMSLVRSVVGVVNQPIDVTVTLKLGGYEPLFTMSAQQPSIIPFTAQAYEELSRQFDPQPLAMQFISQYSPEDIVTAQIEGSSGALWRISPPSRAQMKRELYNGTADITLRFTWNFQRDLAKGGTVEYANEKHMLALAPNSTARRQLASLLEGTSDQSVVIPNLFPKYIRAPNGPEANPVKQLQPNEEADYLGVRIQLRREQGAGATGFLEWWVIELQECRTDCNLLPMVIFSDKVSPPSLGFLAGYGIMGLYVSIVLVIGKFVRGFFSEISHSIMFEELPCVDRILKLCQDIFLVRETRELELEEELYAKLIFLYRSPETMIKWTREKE

T2 sequence (E2JF22 whole entry): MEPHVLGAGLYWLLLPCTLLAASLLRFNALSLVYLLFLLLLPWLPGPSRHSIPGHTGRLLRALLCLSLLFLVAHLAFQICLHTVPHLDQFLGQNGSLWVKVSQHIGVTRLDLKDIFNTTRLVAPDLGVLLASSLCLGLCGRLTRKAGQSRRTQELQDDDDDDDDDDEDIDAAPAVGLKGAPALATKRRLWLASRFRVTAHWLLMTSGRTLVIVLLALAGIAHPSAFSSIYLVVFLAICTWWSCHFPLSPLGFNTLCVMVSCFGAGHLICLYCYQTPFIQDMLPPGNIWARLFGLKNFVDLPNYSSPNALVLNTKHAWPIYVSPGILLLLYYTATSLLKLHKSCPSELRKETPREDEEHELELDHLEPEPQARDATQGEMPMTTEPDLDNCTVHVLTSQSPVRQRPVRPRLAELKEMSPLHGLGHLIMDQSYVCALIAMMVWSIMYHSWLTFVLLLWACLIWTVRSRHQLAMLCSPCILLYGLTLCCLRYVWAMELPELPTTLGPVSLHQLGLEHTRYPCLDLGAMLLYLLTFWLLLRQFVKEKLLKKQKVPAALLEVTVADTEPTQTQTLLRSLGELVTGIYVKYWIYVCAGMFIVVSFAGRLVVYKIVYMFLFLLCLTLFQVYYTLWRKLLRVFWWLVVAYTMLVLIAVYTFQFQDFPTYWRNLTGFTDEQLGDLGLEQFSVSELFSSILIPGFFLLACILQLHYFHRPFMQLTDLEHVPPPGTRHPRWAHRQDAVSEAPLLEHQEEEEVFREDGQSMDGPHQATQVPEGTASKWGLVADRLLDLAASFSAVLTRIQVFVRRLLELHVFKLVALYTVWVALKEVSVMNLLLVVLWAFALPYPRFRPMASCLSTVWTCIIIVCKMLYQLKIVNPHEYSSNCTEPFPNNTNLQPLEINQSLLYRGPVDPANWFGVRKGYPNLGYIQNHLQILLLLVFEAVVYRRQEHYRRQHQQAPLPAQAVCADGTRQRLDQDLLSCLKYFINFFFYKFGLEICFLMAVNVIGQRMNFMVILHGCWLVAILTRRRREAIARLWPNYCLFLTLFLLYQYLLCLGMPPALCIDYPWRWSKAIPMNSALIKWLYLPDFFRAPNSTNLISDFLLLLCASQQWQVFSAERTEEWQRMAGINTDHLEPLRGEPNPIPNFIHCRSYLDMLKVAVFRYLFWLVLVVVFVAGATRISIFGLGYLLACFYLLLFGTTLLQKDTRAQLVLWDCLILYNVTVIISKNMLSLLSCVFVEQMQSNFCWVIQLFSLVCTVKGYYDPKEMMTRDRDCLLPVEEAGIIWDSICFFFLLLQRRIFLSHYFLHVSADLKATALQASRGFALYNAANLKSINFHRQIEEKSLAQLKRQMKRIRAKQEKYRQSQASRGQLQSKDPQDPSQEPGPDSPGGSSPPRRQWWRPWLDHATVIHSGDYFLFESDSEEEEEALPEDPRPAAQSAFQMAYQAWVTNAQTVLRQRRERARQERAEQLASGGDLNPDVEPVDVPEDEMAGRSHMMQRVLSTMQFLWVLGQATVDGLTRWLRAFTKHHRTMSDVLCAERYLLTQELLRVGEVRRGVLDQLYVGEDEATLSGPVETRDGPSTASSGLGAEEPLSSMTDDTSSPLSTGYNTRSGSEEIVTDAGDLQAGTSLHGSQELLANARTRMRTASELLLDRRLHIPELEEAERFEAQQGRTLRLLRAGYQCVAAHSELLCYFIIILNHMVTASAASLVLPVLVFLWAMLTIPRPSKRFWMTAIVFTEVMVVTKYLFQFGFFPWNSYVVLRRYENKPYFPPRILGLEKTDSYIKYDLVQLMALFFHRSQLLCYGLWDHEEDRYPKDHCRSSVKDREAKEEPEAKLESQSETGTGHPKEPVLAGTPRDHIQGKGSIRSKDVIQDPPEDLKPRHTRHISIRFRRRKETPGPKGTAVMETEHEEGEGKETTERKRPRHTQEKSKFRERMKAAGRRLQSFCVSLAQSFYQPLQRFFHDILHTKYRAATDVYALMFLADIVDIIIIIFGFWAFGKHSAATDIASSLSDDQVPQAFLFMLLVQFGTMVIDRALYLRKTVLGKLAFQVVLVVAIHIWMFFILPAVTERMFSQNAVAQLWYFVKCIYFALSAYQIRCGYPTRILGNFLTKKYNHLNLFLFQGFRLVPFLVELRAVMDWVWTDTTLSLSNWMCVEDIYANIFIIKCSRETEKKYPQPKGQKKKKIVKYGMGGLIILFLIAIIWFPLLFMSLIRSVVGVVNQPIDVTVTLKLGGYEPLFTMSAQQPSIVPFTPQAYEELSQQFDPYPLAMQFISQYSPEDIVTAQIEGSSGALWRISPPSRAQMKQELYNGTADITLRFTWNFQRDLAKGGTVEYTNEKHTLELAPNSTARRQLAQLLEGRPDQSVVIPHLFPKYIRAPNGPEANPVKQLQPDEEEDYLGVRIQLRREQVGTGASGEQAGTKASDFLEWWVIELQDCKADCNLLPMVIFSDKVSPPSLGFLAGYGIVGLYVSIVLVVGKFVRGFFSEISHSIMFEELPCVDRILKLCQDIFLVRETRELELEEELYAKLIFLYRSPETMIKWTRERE

Clc1cccc(Cl)c1CSc1nnc(-c2cnccn2)s1 [Yoda1]
whole-cell patch clamp of mechanically activated currents, transfected HEK293T (mPiezo2): No effect was observed upon Yoda1 exposure
apparent EC50 (mPiezo1): 17.1 (95% CI 13.4 to 21.9) μM
apparent EC50 (hPiezo1): 26.6 (95% CI 20.6 to 34.4) μM
